Test results as given in patent publication US3955959A, “Herbicide for use in transplanted rice” (priority 1974, dated 1976).
“And” between values parts separate entries of the source, which are not always exact repeats. Equal values may be shown once.

Tests used:
[1] = tested on: transplanted rice; experiment: Example 1 field test, rice injury; type: in vivo, rice (Watanabe variety)
Excerpt: In the field test 48 day-old seedlings (Watanabe variety) were transplanted to plots 2.5 × 6 m. seeded with the weed seeds indicated in Table 1. At 5 and 10 DAT periods, the herbicides were applied to the plants (now at the 1.2 and 2.0 leaf stage, respectively, of grass weed) at the indicated rate in kilograms per hectare (kg/ha). The weed control and rice injury results for 3 replications are reported in percentages as of the indicated times of observation. The percentages given in the "Perennials" column are based on the weight of the weeds at 63 DAT, i.e., 42 gms/3.6 m^2 for the weedy check.

[2] = tested on: Echinochloa crusgalli; experiment: Example 2 field test, weed control, Chia Yi, Taiwan; type: in vivo; details: obs. 63 DAT
Protocol: (§5) In the field tests of the herbicide of this invention with transplanted rice, the rice seedlings were grown in conventional manner, by seeding the rice in a typical seedbed of sandy loam to clay soil of the country wherein the test was conducted. For laboratory and greenhouse work the seedlings were obtained by seeding rice in a mixture of soil, e.g., Ray silt loam, and peat in wood flats. For purposes of testing the herbicides on younger rice seedlings (infant or Dapog) the rice was usually allowed to grow for 6-15 days before lifting for transplanting. Older (ordinary) rice plants were usually grown for a period of about 2-3 weeks, or as much as about 7 weeks before lifting. Since the period of growth is dependent upon climatic conditions, a better measure of when to transplant the rice seedling is the leaf stage of growth; for infant or Dapog rice the seedling is lifted at the 1.5-2 leaf stage of growth, and for ordinary seedlings at the 2.5-5 leaf stage. The seedlings were then transplanted to the test plots for evaluation of the herbicide for injury against weed species present with the transplanted rice. The herbicides were then applied to the growth medium of the weeds and transplant rice, either preemergent or postemergent with respect to the weeds and postemergent with respect to the transplanted rice. […] Application rates given in the tables refer to the amount of active ingredient used.

[3] = tested on: Cyperus difformis; experiment: as above; type: in vivo; details: obs. 63 DAT
Protocol: as §5

[4] = tested on: Monochoria vaginalis; experiment: as above; type: in vivo; details: obs. 63 DAT
Protocol: as §5

[5] = tested on: transplanted rice; experiment: Example 2 field test, crop injury; details: obs. 63 DAT
Protocol: (§1) In the tests described in the tables below, the herbicides were formulated and used in granular form in conventional manner. […] The commercial herbicide used was a granular product having 5% active ingredient.
(§2) In the field tests of the herbicide of this invention with transplanted rice, the rice seedlings were grown in conventional manner, by seeding the rice in a typical seedbed of sandy loam to clay soil of the country wherein the test was conducted. For laboratory and greenhouse work the seedlings were obtained by seeding rice in a mixture of soil, e.g., Ray silt loam, and peat in wood flats. For purposes of testing the herbicides on younger rice seedlings (infant or Dapog) the rice was usually allowed to grow for 6-15 days before lifting for transplanting. Older (ordinary) rice plants were usually grown for a period of about 2-3 weeks, or as much as about 7 weeks before lifting. Since the period of growth is dependent upon climatic conditions, a better measure of when to transplant the rice seedling is the leaf stage of growth; for infant or Dapog rice the seedling is lifted at the 1.5-2 leaf stage of growth, and for ordinary seedlings at the 2.5-5 leaf stage. The seedlings were then transplanted to the test plots for evaluation of the herbicide for injury against weed species present with the transplanted rice. The herbicides were then applied to the growth medium of the weeds and transplant rice, either preemergent or postemergent with respect to the weeds and postemergent with respect to the transplanted rice. Application times are designated in the tables as "DAT", meaning "days after transplant". Application rates given in the tables refer to the amount of active ingredient used.
(§3) Rice seedlings (ordinary) of Tainan No. 5 variety (japonica) were transplanted at 19 days of growth. Granular formulations of Herbicides A and B were applied at the 1 leaf stage of grass weed (4 DAT) and 2.5 leaf stage of grass weed (10 DAT). Observations were made at 63 DAT and results reported in Table 2 as an average of 3 replications.

[6] = tested on: transplanted rice; experiment: Example 2 field test, rice yield; type: in vivo, rice (Tainan No. 5, japonica); details: in vivo
Protocol: as §1, §2, §3

[7] = tested on: Grass: Ec and Ecol (Echinochloa crusgalli, Echinochloa colonum); experiment: Example 3 field test on Dapog rice, weed control, Munoz, Philippines; type: in vivo; details: obs. 42 DAT
Excerpt: (§4) Treatments were replicated four times.

[8] = tested on: Sedges: Cd, Ci, Fl (Cyperus difformis, Cyperus iria, Fimbristylis littoralis); experiment: as above; type: in vivo; details: obs. 42 DAT
Excerpt: as §4

[9] = tested on: ordinary transplanted rice; experiment: Example 4 field test, crop injury; details: obs. 36 DAT
Protocol: as §1, §2
In this example comparative field tests were conducted with Herbicides A and B on ordinary transplanted rice at Munoz, Philippines.
Twenty-one (21) day-old ordinary wet bed seedlings of the Fortuna variety were transplanted to field plots and Herbicides A and B applied at 5 DAT and 14 DAT. The field plots were overseeded with barnyardgrass (E. crusgalli) at 2 kgs/ha. Treatments were replicated four times.

[10] = tested on: Obw (other broadleaf weeds); experiment: Example 5 field test, weed control, JAAPR, Japan; type: in vivo
Protocol: The rice seedlings were grown to the 1.7 leaf stage for infant seedlings and to the 5.5 leaf stage for ordinary seedlings. Two days after puddling the soil in which the seedlings were to be transplanted, both infant and ordinary seedlings were transplanted into plots 8.5 m^2.
The weed symbol "Obw" represents "other broadleaf weeds" of unspecified identity.

CCCCOCN(C(=O)CCl)c1c(C)cccc1C(C)(C)C [Herbicide A, n-(butoxymethyl)-6'-tert-butyl-2-chloro-o-acetotoluidide]
% Rice Injury ([1]; 5 DAT, 1.0 kg/ha, obs. 21 DAT): 5% | % Rice Injury ([1]; 5 DAT, 1.0 kg/ha, obs. 42 DAT): 0% | % Rice Injury ([1]; 5 DAT, 2.0 kg/ha, obs. 21 DAT): 10% | % Rice Injury ([1]; 5 DAT, 2.0 kg/ha, obs. 42 DAT): 0% | % Rice Injury ([1]; 5 DAT, .25 kg/ha, obs. 21 DAT): 0% | % Rice Injury ([1]; 5 DAT, .25 kg/ha, obs. 42 DAT): 0% | % Rice Injury ([1]; 5 DAT, .5 kg/ha, obs. 21 DAT): 0% | % Rice Injury ([1]; 5 DAT, .5 kg/ha, obs. 42 DAT): 0% | % Rice Injury ([1]; 10 DAT, 1.0 kg/ha, obs. 21 DAT): 0% | % Rice Injury ([1]; 10 DAT, 1.0 kg/ha, obs. 42 DAT): 0% | % Rice Injury ([1]; 10 DAT, 2.0 kg/ha, obs. 21 DAT): 10% | % Rice Injury ([1]; 10 DAT, 2.0 kg/ha, obs. 42 DAT): 0% | % Rice Injury ([1]; 10 DAT, .25 kg/ha, obs. 21 DAT): 0% | % Rice Injury ([1]; 10 DAT, .25 kg/ha, obs. 42 DAT): 0% | % Rice Injury ([1]; 10 DAT, .5 kg/ha, obs. 21 DAT): 0% | % Rice Injury ([1]; 10 DAT, .5 kg/ha, obs. 42 DAT): 0% | early season injury to rice ([1]; Example 1, outgrown): slight early season injury to rice was outgrown | % Weed Control (Echinochloa crusgalli) ([2]; 4 DAT, 1.0 kg/ha): 100% | % Weed Control (Echinochloa crusgalli) ([2]; 4 DAT, 2.0 kg/ha): 100% | % Weed Control (Echinochloa crusgalli) ([2]; 4 DAT, .25 kg/ha): 85% | % Weed Control (Echinochloa crusgalli) ([2]; 4 DAT, .5 kg/ha): 98% | % Weed Control (Echinochloa crusgalli) ([2]; 10 DAT, 1.0 kg/ha): 100% | % Weed Control (Echinochloa crusgalli) ([2]; 10 DAT, 2.0 kg/ha): 100% | % Weed Control (Echinochloa crusgalli) ([2]; 10 DAT, .25 kg/ha): 65% | % Weed Control (Echinochloa crusgalli) ([2]; 10 DAT, .5 kg/ha): 95% | % Weed Control (Cyperus difformis) ([3]; 4 DAT, 1.0 kg/ha): 100% | % Weed Control (Cyperus difformis) ([3]; 4 DAT, 2.0 kg/ha): 100% | % Weed Control (Cyperus difformis) ([3]; 4 DAT, .25 kg/ha): 100% | % Weed Control (Cyperus difformis) ([3]; 4 DAT, .5 kg/ha): 100% | % Weed Control (Cyperus difformis) ([3]; 10 DAT, 1.0 kg/ha): 100% | % Weed Control (Cyperus difformis) ([3]; 10 DAT, 2.0 kg/ha): 100% | % Weed Control (Cyperus difformis) ([3]; 10 DAT, .25 kg/ha): 100% | % Weed Control (Cyperus difformis) ([3]; 10 DAT, .5 kg/ha): 100% | % Weed Control (Monochoria Vaginalis) ([4]; 4 DAT, 1.0 kg/ha): 100% | % Weed Control (Monochoria Vaginalis) ([4]; 4 DAT, 2.0 kg/ha): 100% | % Weed Control (Monochoria Vaginalis) ([4]; 4 DAT, .25 kg/ha): 80% | % Weed Control (Monochoria Vaginalis) ([4]; 4 DAT, .5 kg/ha): 99% | % Weed Control (Monochoria Vaginalis) ([4]; 10 DAT, 1.0 kg/ha): 99% | % Weed Control (Monochoria Vaginalis) ([4]; 10 DAT, 2.0 kg/ha): 99% | % Weed Control (Monochoria Vaginalis) ([4]; 10 DAT, .25 kg/ha): 35% | % Weed Control (Monochoria Vaginalis) ([4]; 10 DAT, .5 kg/ha): 87% | % Crop Injury, stand ([5]; 4 DAT, 1.0 kg/ha): 0% | % Crop Injury, vigor ([5]; 4 DAT, 1.0 kg/ha): 0% | % Crop Injury, stand ([5]; 4 DAT, 2.0 kg/ha): 5% | % Crop Injury, vigor ([5]; 4 DAT, 2.0 kg/ha): 27% | % Crop Injury, stand ([5]; 4 DAT, .25 kg/ha): 0% | % Crop Injury, vigor ([5]; 4 DAT, .25 kg/ha): 0% | % Crop Injury, stand ([5]; 4 DAT, .5 kg/ha): 0% | % Crop Injury, vigor ([5]; 4 DAT, .5 kg/ha): 0% | % Crop Injury, stand ([5]; 10 DAT, 1.0 kg/ha): 3% | % Crop Injury, vigor ([5]; 10 DAT, 1.0 kg/ha): 7% | % Crop Injury, stand ([5]; 10 DAT, 2.0 kg/ha): 15% | % Crop Injury, vigor ([5]; 10 DAT, 2.0 kg/ha): 25% | % Crop Injury, stand ([5]; 10 DAT, .25 kg/ha): 0% | % Crop Injury, vigor ([5]; 10 DAT, .25 kg/ha): 0% | % Crop Injury, stand ([5]; 10 DAT, .5 kg/ha): 0% | % Crop Injury, vigor ([5]; 10 DAT, .5 kg/ha): 2% | Yield (% of H.W. Check) [6]: 97% and 105% and 107% and 81% and 91% and 100% and 73% | rice yield depression [6]: rice yield depression | % Weed control, Grass (Ec and Ecol) ([7]; 5 DAT, 1.0 kg/ha): 100% | % Weed control, Grass (Ec and Ecol) ([7]; 5 DAT, 2.0 kg/ha): 100% | % Weed control, Grass (Ec and Ecol) ([7]; 5 DAT, .25 kg/ha): 100% | % Weed control, Grass (Ec and Ecol) ([7]; 5 DAT, .5 kg/ha): 100% | % Weed control, Grass (Ec and Ecol) ([7]; 14 DAT, 1.0 kg/ha): 50% | % Weed control, Grass (Ec and Ecol) ([7]; 14 DAT, 2.0 kg/ha): 90% | % Weed control, Grass (Ec and Ecol) ([7]; 14 DAT, .25 kg/ha): 0% | % Weed control, Grass (Ec and Ecol) ([7]; 14 DAT, .5 kg/ha): 50% | % Weed control, Sedges (Cd, Ci, Fl) ([8]; 5 DAT, 1.0 kg/ha): 100% | % Weed control, Sedges (Cd, Ci, Fl) ([8]; 5 DAT, 2.0 kg/ha): 100% | % Weed control, Sedges (Cd, Ci, Fl) ([8]; 5 DAT, .25 kg/ha): 100% | % Weed control, Sedges (Cd, Ci, Fl) ([8]; 5 DAT, .5 kg/ha): 100% | % Weed control, Sedges (Cd, Ci, Fl) ([8]; 14 DAT, 1.0 kg/ha): 70% | % Weed control, Sedges (Cd, Ci, Fl) ([8]; 14 DAT, 2.0 kg/ha): 70% | % Weed control, Sedges (Cd, Ci, Fl) ([8]; 14 DAT, .25 kg/ha): 0% | % Weed control, Sedges (Cd, Ci, Fl) ([8]; 14 DAT, .5 kg/ha): 70% | Crop Injury (%) ([9]; 5 DAT, 1.0 kg/ha): 0% | Crop Injury (%) ([9]; 5 DAT, 2.0 kg/ha): 60% | Crop Injury (%) ([9]; 5 DAT, .25 kg/ha): 0% | Crop Injury (%) ([9]; 5 DAT, .5 kg/ha): 0% | Crop Injury (%) ([9]; 14 DAT, 1.0 kg/ha): 0% | Crop Injury (%) ([9]; 14 DAT, 2.0 kg/ha): 30% | Crop Injury (%) ([9]; 14 DAT, .25 kg/ha): 0% | Crop Injury (%) ([9]; 14 DAT, .5 kg/ha): 0% | control of Obw in words ([10]; 0.25 kg/ha both plots, 1.0 kg/ha ordinary): controlled completely | % Weed Control (Obw) ([10]; 1.0 kg/ha, 15 DAT, infant seedlings): 96% | % Weed Control (Obw) ([10]; 1.0 kg/ha, 15 DAT, ordinary seedlings): 100% | % Weed Control (Obw) ([10]; .25 kg/ha, 2 DAT, infant seedlings): 100% | % Weed Control (Obw) ([10]; .25 kg/ha, 2 DAT, ordinary seedlings): 100% | % Weed Control (Obw) ([10]; .5 kg/ha, 7 DAT, infant seedlings): 83% | % Weed Control (Obw) ([10]; .5 kg/ha, 7 DAT, ordinary seedlings): 82%
